# In patent US12708665B2, “Anti-IL-1β antibody therapy in arrhythmogenic cardiomyopathy (ACM)” (Beth Israel Deaconess Medical Center, Inc., priority 2019, dated 2026):
# “Also recorded” adds a separate entry of the source.
# System: Dsg2^mut/mut mice
# Assay: Cytokine arrays, cytokine expression in hearts of Dsg2^mut/mut mice treated with Bay 11-7082
# Type: in vivo
# Source text: Quantitative data (mean±SEM; n=5) for expression of selected cytokines in hearts of vehicle-treated wildtype (WT) mice, Dsg2^mut/mut mice and Dsg2^mut/mut mice treated with Bay 11-7082. * P<0.05 compared to WT; †P<0.05 for treated vs. untreated Dsg2^mut/mut mice.
# To characterize production of chemical mediators of the immune response in ACM, we used arrays to measure 111 different cytokines in the hearts of Dsg2^mut/mut mice and compared the amounts to those measured in the hearts of WT mice and Dsg2^mut/mut mice treated with Bay 11-7082. We observed substantial expression of multiple cytokines in the hearts of Dsg2^mut/mut mice. […] Powerful inflammatory mediators were expressed in Dsg2^mut/mut hearts including IL-1β (up by ~13-fold compared to WT hearts), IFNγ (~5-fold), IL-12 (~6-fold) and TNFα (~2-fold). […] Finally, there were increases in some molecules that fulfill anti-inflammatory roles such as IL-1Ra (up by ~4-fold).
# [1] = cytokine expression level, mouse heart
compound,measurement,setting,value
Cc1ccc(S(=O)(=O)/C=C/C#N)cc1 [Bay11-7082],"IL-1β (IL-1F2), Dsg2^mut/mut (Bay11-7082) vs Dsg2^mut/mut",[1],<1
same,"IL-1β (IL-1F2), Dsg2^mut/mut (Bay11-7082) vs WT",[1],6-10
same,"IL-2, Dsg2^mut/mut (Bay11-7082) vs Dsg2^mut/mut",[1],<1
same,"IL-2, Dsg2^mut/mut (Bay11-7082) vs WT",[1],<1
same,"IL-3, Dsg2^mut/mut (Bay11-7082) vs Dsg2^mut/mut",[1],<1
same,"IL-3, Dsg2^mut/mut (Bay11-7082) vs WT",[1],<1
same,"IL-4, Dsg2^mut/mut (Bay11-7082) vs Dsg2^mut/mut",[1],<1
same,"IL-4, Dsg2^mut/mut (Bay11-7082) vs WT",[1],<1
same,"IL-5, Dsg2^mut/mut (Bay11-7082) vs Dsg2^mut/mut",[1],<1
same,"IL-5, Dsg2^mut/mut (Bay11-7082) vs WT",[1],<1
same,"IL-6, Dsg2^mut/mut (Bay11-7082) vs Dsg2^mut/mut",[1],<1
same,"IL-6, Dsg2^mut/mut (Bay11-7082) vs WT",[1],<1
same,"IL-7, Dsg2^mut/mut (Bay11-7082) vs Dsg2^mut/mut",[1],<1
same,"IL-7, Dsg2^mut/mut (Bay11-7082) vs WT",[1],<1
same,"IL-10, Dsg2^mut/mut (Bay11-7082) vs Dsg2^mut/mut",[1],<1
same,"IL-10, Dsg2^mut/mut (Bay11-7082) vs WT",[1],<1
same,"IL-11, Dsg2^mut/mut (Bay11-7082) vs Dsg2^mut/mut",[1],<1
same,"IL-11, Dsg2^mut/mut (Bay11-7082) vs WT",[1],<1
same,"IL-12 p40, Dsg2^mut/mut (Bay11-7082) vs Dsg2^mut/mut",[1],<1
same,"IL-12 p40, Dsg2^mut/mut (Bay11-7082) vs WT",[1],1-2
same,"IL-13, Dsg2^mut/mut (Bay11-7082) vs Dsg2^mut/mut",[1],<1
same,"IL-13, Dsg2^mut/mut (Bay11-7082) vs WT",[1],1-2
same,"IL-15, Dsg2^mut/mut (Bay11-7082) vs Dsg2^mut/mut",[1],<1
same,"IL-15, Dsg2^mut/mut (Bay11-7082) vs WT",[1],2-4
same,"IL-17a, Dsg2^mut/mut (Bay11-7082) vs Dsg2^mut/mut",[1],<1
same,"IL-17a, Dsg2^mut/mut (Bay11-7082) vs WT",[1],<1
same,"IL-22, Dsg2^mut/mut (Bay11-7082) vs Dsg2^mut/mut",[1],<1
same,"IL-22, Dsg2^mut/mut (Bay11-7082) vs WT",[1],<1
same,"IL-23, Dsg2^mut/mut (Bay11-7082) vs Dsg2^mut/mut",[1],<1
same,"IL-23, Dsg2^mut/mut (Bay11-7082) vs WT",[1],<1
same,"IL-27 p28, Dsg2^mut/mut (Bay11-7082) vs Dsg2^mut/mut",[1],<1
same,"IL-27 p28, Dsg2^mut/mut (Bay11-7082) vs WT",[1],<1
same,"IL-28A/B, Dsg2^mut/mut (Bay11-7082) vs Dsg2^mut/mut",[1],<1
same,"IL-28A/B, Dsg2^mut/mut (Bay11-7082) vs WT",[1],1-2
same,"IL-33, Dsg2^mut/mut (Bay11-7082) vs Dsg2^mut/mut",[1],<1
same,"IL-33, Dsg2^mut/mut (Bay11-7082) vs WT",[1],2-4
same,"IP-10 (CXL10/CRG-2), Dsg2^mut/mut (Bay11-7082) vs Dsg2^mut/mut",[1],<1
same,"IP-10 (CXL10/CRG-2), Dsg2^mut/mut (Bay11-7082) vs WT",[1],<1
same,"KC (CXCL1), Dsg2^mut/mut (Bay11-7082) vs Dsg2^mut/mut",[1],<1
same,"KC (CXCL1), Dsg2^mut/mut (Bay11-7082) vs WT",[1],<1
same,"LDL R, Dsg2^mut/mut (Bay11-7082) vs Dsg2^mut/mut",[1],1-2
same,"LDL R, Dsg2^mut/mut (Bay11-7082) vs WT",[1],1-2
same,"LIF, Dsg2^mut/mut (Bay11-7082) vs Dsg2^mut/mut",[1],<1
same,"LIF, Dsg2^mut/mut (Bay11-7082) vs WT",[1],<1
same,"LIX, Dsg2^mut/mut (Bay11-7082) vs Dsg2^mut/mut",[1],<1
same,"LIX, Dsg2^mut/mut (Bay11-7082) vs WT",[1],>10
same,"Leptin, Dsg2^mut/mut (Bay11-7082) vs Dsg2^mut/mut",[1],<1
same,"Leptin, Dsg2^mut/mut (Bay11-7082) vs WT",[1],1-2
same,"Lipocalin-2/NGAL, Dsg2^mut/mut (Bay11-7082) vs Dsg2^mut/mut",[1],<1
same,"Lipocalin-2/NGAL, Dsg2^mut/mut (Bay11-7082) vs WT",[1],<1
same,"M-CSF, Dsg2^mut/mut (Bay11-7082) vs Dsg2^mut/mut",[1],1-2
same,"M-CSF, Dsg2^mut/mut (Bay11-7082) vs WT",[1],>20
same,"MCP-5 (CCL12), Dsg2^mut/mut (Bay11-7082) vs Dsg2^mut/mut",[1],<1
same,"MCP-5 (CCL12), Dsg2^mut/mut (Bay11-7082) vs WT",[1],<1
same,"MIP-2 (CXCL2), Dsg2^mut/mut (Bay11-7082) vs Dsg2^mut/mut",[1],<1
same,"MIP-2 (CXCL2), Dsg2^mut/mut (Bay11-7082) vs WT",[1],<1
same,"MMP-2, Dsg2^mut/mut (Bay11-7082) vs Dsg2^mut/mut",[1],1-2
same,"MMP-2, Dsg2^mut/mut (Bay11-7082) vs WT",[1],4-6
same,"MMP-3, Dsg2^mut/mut (Bay11-7082) vs Dsg2^mut/mut",[1],1-2
same,"MMP-3, Dsg2^mut/mut (Bay11-7082) vs WT",[1],<1
same,"MMP-9, Dsg2^mut/mut (Bay11-7082) vs Dsg2^mut/mut",[1],<1
same,"MMP-9, Dsg2^mut/mut (Bay11-7082) vs WT",[1],<1
same,"Myeloperoxidase, Dsg2^mut/mut (Bay11-7082) vs Dsg2^mut/mut",[1],<1
same,"Myeloperoxidase, Dsg2^mut/mut (Bay11-7082) vs WT",[1],2-4
same,"Osteopontin (OPN), Dsg2^mut/mut (Bay11-7082) vs Dsg2^mut/mut",[1],<1
same,"Osteopontin (OPN), Dsg2^mut/mut (Bay11-7082) vs WT",[1],4-6
same,"Osteoprotegerin/TNFRSF11B, Dsg2^mut/mut (Bay11-7082) vs Dsg2^mut/mut",[1],<1
same,"Osteoprotegerin/TNFRSF11B, Dsg2^mut/mut (Bay11-7082) vs WT",[1],<1
same,"P-Selectin/CD62P, Dsg2^mut/mut (Bay11-7082) vs Dsg2^mut/mut",[1],<1
same,"P-Selectin/CD62P, Dsg2^mut/mut (Bay11-7082) vs WT",[1],>10
same,"PD-EGF/Thymidine phosphorylase, Dsg2^mut/mut (Bay11-7082) vs Dsg2^mut/mut",[1],<1
same,"PD-EGF/Thymidine phosphorylase, Dsg2^mut/mut (Bay11-7082) vs WT",[1],<1
same,"PDGF-BB, Dsg2^mut/mut (Bay11-7082) vs Dsg2^mut/mut",[1],<1
same,"PDGF-BB, Dsg2^mut/mut (Bay11-7082) vs WT",[1],1-2
same,"Pentraxin 2/SAP, Dsg2^mut/mut (Bay11-7082) vs Dsg2^mut/mut",[1],<1
same,"Pentraxin 2/SAP, Dsg2^mut/mut (Bay11-7082) vs WT",[1],1-2
same,"Pentraxin 3/TSG-14, Dsg2^mut/mut (Bay11-7082) vs Dsg2^mut/mut",[1],<1
same,"Pentraxin 3/TSG-14, Dsg2^mut/mut (Bay11-7082) vs WT",[1],<1
same,"Periostin/OSF-2, Dsg2^mut/mut (Bay11-7082) vs Dsg2^mut/mut",[1],<1
same,"Periostin/OSF-2, Dsg2^mut/mut (Bay11-7082) vs WT",[1],<1
same,"Pref-1/DLK-1/FA1, Dsg2^mut/mut (Bay11-7082) vs Dsg2^mut/mut",[1],<1
same,"Pref-1/DLK-1/FA1, Dsg2^mut/mut (Bay11-7082) vs WT",[1],6-10
same,"Proliferin, Dsg2^mut/mut (Bay11-7082) vs Dsg2^mut/mut",[1],<1
same,"Proliferin, Dsg2^mut/mut (Bay11-7082) vs WT",[1],6-10
same,"Proprotein Convertase 9/PCSK9, Dsg2^mut/mut (Bay11-7082) vs Dsg2^mut/mut",[1],1-2
same,"Proprotein Convertase 9/PCSK9, Dsg2^mut/mut (Bay11-7082) vs WT",[1],<1
same,"RAGE, Dsg2^mut/mut (Bay11-7082) vs Dsg2^mut/mut",[1],<1
same,"RAGE, Dsg2^mut/mut (Bay11-7082) vs WT",[1],<1
same,"RBP4, Dsg2^mut/mut (Bay11-7082) vs Dsg2^mut/mut",[1],<1
same,"RBP4, Dsg2^mut/mut (Bay11-7082) vs WT",[1],1-2
same,"Reg3G, Dsg2^mut/mut (Bay11-7082) vs Dsg2^mut/mut",[1],<1
same,"Reg3G, Dsg2^mut/mut (Bay11-7082) vs WT",[1],6-10
same,"Resistin, Dsg2^mut/mut (Bay11-7082) vs Dsg2^mut/mut",[1],<1
same,"Resistin, Dsg2^mut/mut (Bay11-7082) vs WT",[1],2-4
same,"Serpin E1/PAI-1, Dsg2^mut/mut (Bay11-7082) vs Dsg2^mut/mut",[1],<1
same,"Serpin E1/PAI-1, Dsg2^mut/mut (Bay11-7082) vs WT",[1],6-10
same,"Serpin F1/PEDF, Dsg2^mut/mut (Bay11-7082) vs Dsg2^mut/mut",[1],<1
same,"Serpin F1/PEDF, Dsg2^mut/mut (Bay11-7082) vs WT",[1],<1
same,"TIM-1/KIM-1/HAVCR, Dsg2^mut/mut (Bay11-7082) vs Dsg2^mut/mut",[1],1-2
same,"TIM-1/KIM-1/HAVCR, Dsg2^mut/mut (Bay11-7082) vs WT",[1],<1
same,"TNF-α, Dsg2^mut/mut (Bay11-7082) vs Dsg2^mut/mut",[1],<1
same,"TNF-α, Dsg2^mut/mut (Bay11-7082) vs WT",[1],1-2
same,"Thrombopoeitin, Dsg2^mut/mut (Bay11-7082) vs Dsg2^mut/mut",[1],1-2
same,"Thrombopoeitin, Dsg2^mut/mut (Bay11-7082) vs WT",[1],<1
same,"VCAM-1/CD106, Dsg2^mut/mut (Bay11-7082) vs Dsg2^mut/mut",[1],1-2
same,"VCAM-1/CD106, Dsg2^mut/mut (Bay11-7082) vs WT",[1],6-10
same,"VEGF, Dsg2^mut/mut (Bay11-7082) vs Dsg2^mut/mut",[1],1-2
same,"VEGF, Dsg2^mut/mut (Bay11-7082) vs WT",[1],<1
same,"WISP-1/CCN4, Dsg2^mut/mut (Bay11-7082) vs Dsg2^mut/mut",[1],<1
same,"WISP-1/CCN4, Dsg2^mut/mut (Bay11-7082) vs WT",[1],<1
same,"sICAM-1 (CD54), Dsg2^mut/mut (Bay11-7082) vs Dsg2^mut/mut",[1],<1
same,"sICAM-1 (CD54), Dsg2^mut/mut (Bay11-7082) vs WT",[1],1-2
same,increased expression of cytokines in Dsg2^mut/mut hearts,"treated vs untreated Dsg2^mut/mut mice, FIG. 1, result in words",attenuation; also recorded: blunted or fully normalized
